In brackets after ≈: the same amount, converted by molar mass.
Columns and labels:
Bacteroides fragilis = assay: MIC against anaerobes: Bacteroides fragilis; format: cell-based; conditions: Bacteroides fragilis (19)
Method: (§1) The in vitro activity of OPT-80 was determined against 350 anaerobes. The experimental procedure for which is outlined in Antimicrobial Agents and Chemotherapy, 2004, 48: 4430-4434, which is hereby incorporated by reference in its entirety.
(§2) All organisms, including the 21 C. difficile strains, were separate isolates and not clonally related. All quality-control gram-negative and -positive strains recommended by NCCLS were included with each run: in every case, results (where available) were in range.

[1] = test system: Non-fragilis B. fragilis group species; assay: MIC against anaerobes: non-fragilis B. fragilis group; format: cell-based; conditions: Bacteroides fragilis; Non-fragilis B. fragilis group species (38)
Method: as §1, §2

[2] = test system: Prevotella/Porphyromonas species; assay: MIC against anaerobes: Prevotella/Porphyromonas; format: cell-based; conditions: Prevotella/Porphyromonas species (42)
Method: as §1, §2

Fusobacterium nucleatum = assay: MIC against anaerobes: Fusobacterium nucleatum; format: cell-based; conditions: Fusobacterium nucleatum (14)
Method: as §1, §2

Fusobacterium mortiferum = assay: MIC against anaerobes: Fusobacterium mortiferum; format: cell-based; conditions: Fusobacterium mortiferum (10)
Method: as §1, §2

[3] = test system: Peptostreptococcus tetradius; assay: MIC against anaerobes: Peptostreptococcus tetradius; format: cell-based; conditions: Peptostreptococcus tetradius (16)
[4] = test system: Peptostreptococcus anaerobius; assay: MIC against anaerobes: Peptostreptococcus anaerobius; format: cell-based; conditions: Peptostreptococcus anaerobius (15)
Micromonas micros = assay: MIC against anaerobes: Micromonas micros; format: cell-based; conditions: Micromonas micros (14)
[5] = test system: Peptostreptococcus prevotii; assay: MIC against anaerobes: Peptostreptococcus prevotii; format: cell-based; conditions: Peptostreptococcus prevotii (3)
Eggerthella lenta = assay: MIC against anaerobes: Eggerthella lenta; format: cell-based; conditions: Eggerthella lenta (10)
Clostridium difficile [6] = assay: MIC against anaerobes: Clostridium difficile; format: cell-based; conditions: Clostridium difficile (21)
Method: as §1, §2

Clostridium spp. (all) = assay: MIC against anaerobes: Clostridium spp. (all); format: cell-based
Method: as §1, §2

[7] = test system: Bacteroides fragilis group spp.; assay: MIC against intestinal bacteria: Bacteroides fragilis group; format: cell-based
[8] = test system: Other anaerobic gram-negative rods; assay: MIC against intestinal bacteria: other anaerobic gram-negative rods; format: cell-based
Clostridium bolteae = assay: MIC against intestinal bacteria: Clostridium bolteae; format: cell-based; conditions: Clostridium bolteae (7)
Clostridium difficile [9] = assay: MIC against intestinal bacteria: Clostridium difficile; format: cell-based; conditions: Clostridium difficile (23)
Method: (§3) The in vitro activity of OPT-80 against intestinal bacteria was evaluated. The experimental procedure for which is outlined in Antimicrobial Agents and Chemotherapy, 2004, 48: 4898-4902, which is hereby incorporated by reference in its entirety.
(§4) Antimicrobial concentration ranges were selected to encompass or surpass the levels that would be achieved in the gut (to the extent that this information is available), subject to the limitations of solubility of the drugs in the testing medium. The range of concentration of OPT-80 used during testing was 0.03 μg/ml to 1024 μg/ml.
(§5) For analysis, the bacteria tested were generally placed into genus, species, or other groups with at least 10 isolates. The ranges and the MICs at which 50 and 90% of isolates were inhibited were determined except for organisms with fewer than 10 strains tested, for which only the ranges are reported (Table 8).

[10] = test system: Clostridium paraputrificum; assay: MIC against intestinal bacteria: Clostridium paraputrificum; format: cell-based; conditions: Clostridium paraputrificum (8)
Clostridium perfringens = format: cell-based; conditions: Clostridium perfringens (14)
Clostridium ramosum = assay: MIC against intestinal bacteria: Clostridium ramosum; format: cell-based
Clostridium sordellii = assay: MIC against intestinal bacteria: Clostridium sordellii; format: cell-based; conditions: Clostridium sordellii (5)
Method: as §3, §4, §5

All Clostridium species = assay: MIC against intestinal bacteria: all Clostridium species; format: cell-based; conditions: All Clostridium species (107)
[11] = test system: Anaerobic gram-positive cocci; assay: MIC against intestinal bacteria: anaerobic gram-positive cocci; format: cell-based; conditions: Anaerobic gram-positive cocci (49)
[12] = test system: All anaerobic gram-positive species; assay: MIC against intestinal bacteria: all anaerobic gram-positive species; format: cell-based
[13] = test system: Other Streptococcus species; assay: MIC against intestinal bacteria: other Streptococcus species; format: cell-based; conditions: Other Streptococcus species (9)
Method: as §3, §4, §5

[14] = test system: Staphylococcus aureus and Staphylococcus epidermidis; assay: MIC against intestinal bacteria: Staphylococcus aureus and Staphylococcus epidermidis; format: cell-based; conditions: Staphylococcus aureus and Staphylococcus epidermidis (19)
C. difficile = assay: MIC versus C. difficile strains; conditions: Clostridioides difficile
S. aureus = assay: MIC against other microorganisms: S. aureus
E. faecium = assay: MIC against other microorganisms: E. faecium
E. faecalis = assay: MIC against other microorganisms: E. faecalis; conditions: Enterococcus faecalis

CCc1c(Cl)c(O)c(Cl)c(O)c1C(=O)O[C@H]1[C@H](O)[C@H](OC)[C@H](OCC2=CC=CC[C@H](O)C(C)=C[C@H](CC)[C@@H](O[C@@H]3OC(C)(C)[C@@H](OC(=O)C(C)C)[C@H](O)[C@@H]3O)C(C)=CC(C)=CC[C@@H]([C@@H](C)O)OC2=O)O[C@@H]1C [R-Tiacumicin B, 3-[[[6-Deoxy-4-O-(3,5-dichloro-2-ethyl-4,6-dihydroxybenzoyl)-2-O-methyl-β-D-mannopyranosyl]oxy]-methyl]-12(R)-[[6-deoxy-5-C-methyl-4-O-(2-methyl-1-oxopropyl)-β-D-lyxo-hexopyranosyl]oxy]-11(S)-ethyl-8(S)-hydroxy-18(S)-(1(R)-hydroxyethyl)-9,13,15-trimethyloxacyclooctadeca-3,5,9,13,15-pentaene-2-one]
MIC50 (Bacteroides fragilis): > 128 µg/mL
MIC90 (Bacteroides fragilis): > 128 µg/mL
MIC50 [1]: > 128 µg/mL
MIC90 [1]: > 128 µg/mL
MIC50 [2]: > 128 µg/mL
MIC90 [2]: > 128 µg/mL
MIC50 (Fusobacterium nucleatum): > 128 µg/mL
MIC90 (Fusobacterium nucleatum): > 128 µg/mL
MIC50 (Fusobacterium mortiferum): > 128 µg/mL
MIC90 (Fusobacterium mortiferum): > 128 µg/mL
MIC50 ([3]; Anaerococcus tetradius): 1 µg/mL (≈ 0.945 µM)
MIC90 ([3]; Anaerococcus tetradius): 1 µg/mL (≈ 0.945 µM)
MIC range [3]: 0.25 to 2.0 µg/mL
MIC50 [4]: < 0.016 µg/mL
MIC90 [4]: < 0.016 µg/mL
MIC range [4]: <0.016 to 0.03 µg/mL
MIC range (Micromonas micros): <0.016 to 0.06 µg/mL
MIC50 (Micromonas micros; Parvimonas micra): 0.03 µg/mL (≈ 0.0284 µM)
MIC90 (Micromonas micros; Parvimonas micra): 0.06 µg/mL (≈ 0.0567 µM)
MIC range [5]: 0.25 to 1.0 µg/mL
MIC50 (Eggerthella lenta): < 0.016 µg/mL
MIC90 (Eggerthella lenta): < 0.03 µg/mL
MIC range (Eggerthella lenta): <0.016 to 0.06 µg/mL
MIC50 (Clostridium difficile [6]; Clostridioides difficile): < 0.016 µg/mL
MIC90 (Clostridium difficile [6]; Clostridioides difficile): 0.125 µg/mL (≈ 0.118 µM)
MIC range (Clostridium difficile [6]): <0.016 to 0.25 µg/mL
MIC50 (Clostridium spp. (all)): < 0.016 µg/mL
MIC90 (Clostridium spp. (all)): 0.06 µg/mL (≈ 0.0567 µM)
MIC90 ([7]; Bacteroides fragilis): > 1020 µg/mL
MIC50 ([7]; Bacteroides fragilis group spp. (50)): 256 µg/mL (≈ 242 µM)
MIC50 [8]: 1020 µg/mL (≈ 968 µM)
MIC90 [8]: > 1020 µg/mL
MIC range ([8]; Other anaerobic gram-negative rods (51)): 0.06 to 1024 µg/mL
MIC range (Clostridium bolteae): 1 to 64 µg/mL
MIC50 (Clostridium difficile [9]; Clostridioides difficile): 0.12 µg/mL (≈ 0.113 µM)
MIC90 (Clostridium difficile [9]; Clostridioides difficile): 0.25 µg/mL (≈ 0.236 µM)
MIC range (Clostridium difficile [9]): 0.06 to 2 µg/mL
MIC range [10]: 0.06 to 8 µg/mL
MIC range (Clostridium perfringens): 0.06 µg/mL (≈ 0.0567 µM)
MIC range (Clostridium ramosum; Clostridium ramosum (10)): 256 to 512 µg/mL
MIC50 (Clostridium ramosum; Thomasclavelia ramosa): 512 µg/mL (≈ 484 µM)
MIC90 (Clostridium ramosum; Thomasclavelia ramosa, Clostridium ramosum (10)): 512 µg/mL (≈ 484 µM)
MIC range (Clostridium sordellii): 0.06 µg/mL (≈ 0.0567 µM)
MIC50 (All Clostridium species): 0.062 µg/mL (≈ 0.0586 µM)
MIC90 (All Clostridium species): 128 µg/mL (≈ 121 µM)
MIC50 [11]: 0.5 µg/mL (≈ 0.473 µM)
MIC90 [11]: 2 µg/mL (≈ 1.89 µM)
MIC50 [12]: 0.12 µg/mL (≈ 0.113 µM)
MIC90 ([12]; All anaerobic gram-positive species (219)): 64 µg/mL (≈ 60.5 µM)
MIC range [13]: 16 to 128 µg/mL
MIC50 [14]: 0.5 µg/mL (≈ 0.473 µM)
MIC90 [14]: 2 µg/mL (≈ 1.89 µM)
MIC range [14]: 0.25 to 2 µg/mL
MIC (C. difficile): 0.125 µg/mL (≈ 0.118 µM)
MIC (C. difficile; ATCC9689): 0.03 µg/mL (≈ 0.0284 µM)
MIC (C. difficile; ATCC17857): 0.03 µg/mL (≈ 0.0284 µM)
MIC (C. difficile; ATCC43255): 0.125 µg/mL (≈ 0.118 µM)
MIC (S. aureus; Staphylococcus aureus, ATCC29213): 4 µg/mL (≈ 3.78 µM)
MIC (S. aureus; Staphylococcus aureus, MRSA): 4 µg/mL (≈ 3.78 µM)
MIC (S. aureus; Strain ID # 3, S. aureus, (MRSA)): 4 µg/mL (≈ 3.78 µM)
MIC (E. faecium; Enterococcus faecium): 1 µg/mL (≈ 0.945 µM)
MIC (E. faecium; Strain ID # 8, E. faecium Vanc. resistant): 1 µg/mL (≈ 0.945 µM)
MIC (E. faecalis; ATCC29212, Strain ID # 4, E. faecalis (ATCC 29212)): 2 µg/mL (≈ 1.89 µM)
MIC (E. faecalis; Strain ID # 5, E. faecalis Vanc. resistant): 4 µg/mL (≈ 3.78 µM)
MIC (E. faecalis; Strain ID # 6, E. faecalis Vanc. resistant): 1 µg/mL (≈ 0.945 µM)
